According to patent US20050107289A1, “Anti-microbial peptides and compositions” (priority 2001, published 2005):
Structures can show the parent of a compound that is named as a salt. Where two headings read alike, the source gives them in different places. Non-standard residues stand in square brackets, D forms with d. Residues, ends and D or L forms follow the SMILES beside them.

Assays:
murine red blood cells = assay: Red blood cell hemolysis; assay type: cell-based, mouse
Outline: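 Washed murine erythrocytes at 5% in saline with 10% FBS were exposed to serial peptide dilutions for 30 min at 37° C. Supernatant absorbance at 560 nm was read, with saline as 0% and 1% Triton X-100 as 100% hemolysis.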

[1] = test system: S. aureus (MRSA) ATCC 33591; assay type: cell-based, Staphylococcus aureus; conditions: Table 9
Outline: (§1)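 First, peptide stocks in 5% DMSO/9% sucrose were quantified and diluted 2-fold over roughly 400-2 μg/ml. Next, overnight cultures were diluted 4000-fold to ~2.5×10^5 cfu/ml and combined with peptide. Minimum inhibitory concentrations followed NCCLS broth macro- or microdilution procedures.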

[2] = test system: vancomycin-resistant Enterococus faecalis (VRE)(ATCC 51575); assay type: cell-based, Enterococcus faecalis; parameters: key to VRE (in vitro activity): peptide concentration in μg/ml (broth dilution assay); conditions: Table 9
Outline: as §1

[3] = media b: cation adjusted Meuller Hinton broth (MHBII)
[4] = media c: Brain Heart Infusion (BHI)
[5] = media a: anti-microbial media-3 (AM-3)

Row | Structure (SMILES) | RBC Hemolysis (HD50) (murine red blood cells) | MRSA (in vitro activity) [1, 3] | VRE (in vitro activity) [2, 4] | MRSA (in vitro activity) [1, 5] | VRE (in vitro activity) ([2]; media a: AM-3) | VRE (in vitro activity) ([2]; media b: MHBII)
1 | C[C@H](O)[C@H]1NC(=O)[C@H](CCCNC(=N)N)NC(=O)[C@@H](CO)NC(=O)[C@H](CCC(N)=O)NC(=O)[C@@H](Cc2c[nH]cn2)NC(=O)[C@H](CCCCN)NC1=O [SEQ ID NO:130, [KHQSRT]] (cyclo(K[dH]Q[dS]R[dT])) | >200 | >200 | >200 | – | – | –
2 | CC(C)C[C@H]1NC(=O)[C@H](Cc2c[nH]c3ccccc23)NC(=O)[C@@H](CCCNC(=N)N)NC(=O)[C@H](CCCCN)NC(=O)[C@@H](Cc2c[nH]cn2)NC(=O)[C@H](CCCCN)NC(=O)[C@@H](CC(C)C)NC(=O)[C@H](Cc2c[nH]c3ccccc23)NC1=O [SEQ ID NO:74, [KRWLWLKH]] (cyclo(K[dR]W[dL]W[dL]K[dH])) | >130 | – | – | 5 | 7 | –
3 | CC(C)C[C@H]1NC(=O)[C@H](CCCCN)NC(=O)[C@@H](CO)NC(=O)[C@H](CCCCN)NC(=O)[C@@H](CC(C)C)NC(=O)[C@H](Cc2c[nH]c3ccccc23)NC(=O)[C@@H](CC(C)C)NC(=O)[C@H](Cc2c[nH]c3ccccc23)NC1=O [SEQ ID NO:61, [KSKLWLWL]] (cyclo(K[dS]K[dL]W[dL]W[dL])) | 125 | 15 | 15 | – | – | –
4 | CC(C)C[C@H]1NC(=O)[C@H](C(C)C)NC(=O)[C@@H](CC(C)C)NC(=O)[C@H](C(C)C)NC(=O)[C@@H](CCCCN)NC(=O)[C@H](CO)NC(=O)[C@@H](CO)NC(=O)[C@H](CCCCN)NC1=O [SEQ ID NO:80, [KSSKVLVL]] (cyclo(K[dS]S[dK]V[dL]V[dL])) | >180 | 22 | 180 | – | – | –
5 | CC(C)C[C@@H]1NC(=O)[C@@H](Cc2c[nH]c3ccccc23)NC(=O)[C@H](CCCCN)NC(=O)[C@@H](Cc2ccccc2)NC(=O)[C@H](CCCCN)NC(=O)[C@@H](Cc2c[nH]c3ccccc23)NC1=O [SEQ ID NO:128, [KFKWLW]] (cyclo(K[dF]K[dW]L[dW])) | >61 | – | – | 14 | 43 | –
6 | CC(C)C[C@H]1NC(=O)[C@H](Cc2c[nH]c3ccccc23)NC(=O)[C@@H](CCCCN)NC(=O)[C@H](CO)NC(=O)[C@@H](CO)NC(=O)[C@H](CCCCN)NC(=O)[C@@H](CC(C)C)NC(=O)[C@H](Cc2c[nH]c3ccccc23)NC1=O [SEQ ID NO:82, [KSSKWLWL]] (cyclo(K[dS]S[dK]W[dL]W[dL])) | >220 | 27 | 27 | – | – | –
7 | CC(C)C[C@H]1NC(=O)[C@H](Cc2ccccc2)NC(=O)[C@@H](CCCCN)NC(=O)[C@H](CO)NC(=O)[C@@H](CO)NC(=O)[C@H](CCCCN)NC(=O)[C@@H](CC(C)C)NC(=O)[C@H](Cc2ccccc2)NC1=O [SEQ ID NO:79, [KSSKFLFL]] (cyclo(K[dS]S[dK]F[dL]F[dL])) | >200 | 43 | 43 | – | – | –
8 | CC(C)C[C@@H]1NC(=O)[C@@H](Cc2c[nH]c3ccccc23)NC(=O)[C@H](C(C)C)NC(=O)[C@@H](CCCNC(=N)N)NC(=O)[C@H](CCC(N)=O)NC(=O)[C@@H](CCCNC(=N)N)NC(=O)[C@H](Cc2c[nH]c3ccccc23)NC(=O)[C@@H](Cc2c[nH]c3ccccc23)NC1=O [SEQ ID NO:70, [QRVWLWWR]] (cyclo(Q[dR]V[dW]L[dW]W[dR])) | 30 | 12.5 | – | – | – | 6.3
9 | CC(C)C[C@H]1NC(=O)[C@H](Cc2c[nH]c3ccccc23)NC(=O)[C@@H](Cc2c[nH]cn2)NC(=O)[C@H](Cc2c[nH]cn2)NC(=O)[C@@H](CO)NC(=O)[C@H](Cc2c[nH]c3ccccc23)NC(=O)[C@@H](CC(C)C)NC(=O)[C@H](Cc2c[nH]c3ccccc23)NC1=O [[SHHWLWLW-HCl] (15), SHHWLWLW] (cyclo([dS]H[dH]W[dL]W[dL]W)) | 40 | 6 | 6 | – | – | –
10 | CC(C)C[C@@H]1NC(=O)[C@@H](Cc2c[nH]c3ccccc23)NC(=O)[C@H](CCC(N)=O)NC(=O)[C@@H](Cc2ccccc2)NC(=O)[C@H](CCCCN)NC(=O)[C@@H](Cc2c[nH]c3ccccc23)NC1=O [SEQ ID NO:129, [KFQWLW]] (cyclo(K[dF]Q[dW]L[dW])) | >81 | – | – | 25 | 10 | –
11 | CC(C)C[C@@H]1NC(=O)[C@@H](Cc2c[nH]c3ccccc23)NC(=O)[C@H](CCCCN)NC(=O)[C@@H](Cc2c[nH]cn2)NC(=O)[C@H](CCCCN)NC(=O)[C@@H](Cc2c[nH]c3ccccc23)NC1=O [SEQ ID NO:119, [KHKWLW]] (cyclo(K[dH]K[dW]L[dW])) | >115 | – | – | 12 | 60 | –
12 | CC(C)C[C@H]1NC(=O)[C@H](CCCCN)NC(=O)[C@@H](Cc2c[nH]cn2)NC(=O)[C@H](CCCCN)NC(=O)[C@@H](CC(C)C)NC(=O)[C@H](Cc2c[nH]c3ccccc23)NC(=O)[C@@H](CC(C)C)NC(=O)[C@H](Cc2c[nH]c3ccccc23)NC1=O [SEQ ID NO:50, [KHKLWLWL]] (cyclo(K[dH]K[dL]W[dL]W[dL])) | 150 | 9 | 18 | – | – | –
13 | CC(C)C[C@@H]1NC(=O)[C@@H](Cc2c[nH]c3ccccc23)NC(=O)[C@H](CCC(N)=O)NC(=O)[C@@H](CCC(N)=O)NC(=O)[C@H](CCCCN)NC(=O)[C@@H](Cc2c[nH]c3ccccc23)NC1=O [SEQ ID NO:124, [KQQWLW]] (cyclo(K[dQ]Q[dW]L[dW])) | >35 | – | – | >35 | >35 | –
14 | CC(C)C[C@@H]1NC(=O)[C@@H](Cc2c[nH]c3ccccc23)NC(=O)[C@H](CCCCN)NC(=O)[C@@H](Cc2c[nH]cn2)NC(=O)[C@H](CCCCN)NC(=O)[C@@H](Cc2c[nH]cn2)NC(=O)[C@H](CCCCN)NC(=O)[C@@H](Cc2c[nH]c3ccccc23)NC1=O [SEQ ID NO:85, [KHKHKWLW]] (cyclo(K[dH]K[dH]K[dW]L[dW])) | 150 | 6 | 6 | – | – | –
15 | CC(C)[C@H]1NC(=O)[C@H](Cc2ccc(O)cc2)NC(=O)[C@@H](CO)NC(=O)[C@H](CCCCN)NC(=O)[C@@H](CO)NC(=O)[C@H](Cc2c[nH]c3ccccc23)NC1=O [SEQ ID NO:127, [KSYVWS]] (cyclo(K[dS]Y[dV]W[dS])) | >200 | >200 | >200 | – | – | –
16 | CC(C)C[C@H]1NC(=O)[C@H](C)NC(=O)[C@@H](CC(C)C)NC(=O)[C@H](CCCCN)NC(=O)[C@@H](Cc2c[nH]cn2)NC(=O)[C@H](CCCCN)NC(=O)[C@@H](CC(C)C)NC(=O)[C@H](Cc2c[nH]c3ccccc23)NC1=O [SEQ ID NO:46, [KHKLALWL]] (cyclo(K[dH]K[dL]A[dL]W[dL])) | >200 | 25 | 50 | – | – | –
17 | CC(C)C[C@H]1NC(=O)[C@H](Cc2c[nH]c3ccccc23)NC(=O)[C@@H](CO)NC(=O)[C@H](CCCCN)NC(=O)[C@@H](Cc2ccccc2)NC(=O)[C@H](Cc2c[nH]c3ccccc23)NC(=O)[C@@H](CC(C)C)NC(=O)[C@H](Cc2c[nH]c3ccccc23)NC1=O [SEQ ID NO:42, [KSWLWLWF]] (cyclo(K[dS]W[dL]W[dL]W[dF])) | >26 | – | – | >26 | >26 | –
18 | CC(C)C[C@H]1NC(=O)[C@H](C)NC(=O)[C@@H](CC(C)C)NC(=O)[C@H](CCCCN)NC(=O)[C@@H](CO)NC(=O)[C@H](CCCCN)NC(=O)[C@@H](CC(C)C)NC(=O)[C@H](C)NC1=O [SEQ ID NO:53, [KSKLALAL]] (cyclo(K[dS]K[dL]A[dL]A[dL])) | >280 | 35 | >280 | – | – | –
19 | NCCCC[C@@H]1NC(=O)[C@@H](Cc2ccc(O)cc2)NC(=O)[C@H](CCC(N)=O)NC(=O)[C@@H](Cc2ccc(O)cc2)NC(=O)[C@H](CCCCN)NC(=O)[C@@H](CC(N)=O)NC(=O)[C@H](Cc2c[nH]c3ccccc23)NC(=O)[C@@H](CC(N)=O)NC1=O [SEQ ID NO:94, [KYQYKNWN]] (cyclo(K[dN]W[dN]K[dY]Q[dY])) | >200 | >200 | >200 | – | – | –
20 | CC(C)C[C@H]1NC(=O)[C@H](Cc2c[nH]c3ccccc23)NC(=O)[C@@H](Cc2c[nH]cn2)NC(=O)[C@H](CCCCN)NC(=O)[C@@H](Cc2c[nH]cn2)NC(=O)[C@H](CCCCN)NC(=O)[C@@H](CC(C)C)NC(=O)[C@H](Cc2c[nH]c3ccccc23)NC1=O [SEQ ID NO:73, [KHKHWLWL]] (cyclo(K[dH]K[dH]W[dL]W[dL])) | 150 | 18 | 18 | – | – | –
